This note sets out measurements from US20200255884A1, “METHOD OF DETECTION OF DNA END(S) AND ITS USE” (INTODNA SP. Z O.O., priority 2017, published 2020).

The experiment has as its system HeLa 21-4 cells. The experiment can be described thus: Procedure 1 on HeLa cells in suspension with subsequent isolation of chromatin, fluorescence spectrophotometer. Type of experiment: cell-based. The conditions noted are these: H2O2 4 mM, 30 minutes. As for the experimental part: In this Example, HeLa 21-4 cells (obtained from P.R. Cook, University of Oxford) were seeded on 6-well plates and cultured for 48 hours in DMEM supplemented with 10% FBS until the culture reached 100% confluency (number of cells: 1.2×10^6 per 1 well). Next, cells were treated with the DNA damaging agent H2O2 which was added directly to the growth medium (final concentration: 4 mM). The cells were incubated at 37° C. for 30 minutes in the standard cell culture incubator with CO2 level control. The control, untreated cells and the damaged cells (H2O2) were then harvested using 0.5 ml trypsin and transferred to 1.5 ml eppendorf tubes. Afterwards, trypsin was inactivated by adding 0.5 ml DMEM supplemented with 10% FBS. Subsequently, cells were spun down in the table top centrifuge (Eppendorf centrifuge, 5417 C, rotor: F45-30-11) (1700 rpm, 5 minutes, room temperature). The cell pellet was resuspended in PBS and again spun down (this washing step was repeated twice). When the supernatant PBS was discarded, cells were resuspended in the remaining droplet of PBS. Subsequently, ice-cold 70% Et(OH) was added dropwise, and cells were incubated in Et(OH) for 30 minutes in −20° C. Then, the cells were treated according to Procedure 1, wherein steps 1, 3, 4, 9 were omitted, and every washing step and every incubation were followed by centrifugation. BrdU was linked to free ends of DNA using TdT enzyme using APO-BRDU kit (Phoenix Flow Systems, AU: 1001) according to the supplier's instructions. […] The fluorescence signal was generated using Duolink® In Situ Detection Reagents Green (Sigma, DUO92014). […]
The level of fluorescence intensity of the cell extract obtained from untreated control cells and the H2O2 damaged cells was measured using a fluorescence spectrophotometer (Hitachi F-7000 supplied with Xe lamp). The fluorescence intensity was measured for 30 s (excitation 480 nm, emission 520 nm).

Structures are written as SMILES.

With `OO` [H2O2], for the setting “cell extract”, the “fluorescence intensity per 1 ng of DNA” value is 3.2±0.3×10^−4 a.u and the “flurescence signal per 1 ng of DNA” value is 3.2 ± 0.3 × 10^−4 a.u./ng. The fluorescence signal (extract volume 40 μl, excitation 480 nm, emission 520 nm) was found to be 0.046 ± 0.005 a.u.
